Patent US20210393855A1, “NEW HYDROGELS HAVING A SILYLATED STRUCTURE, AND METHOD FOR OBTAINING SAME” (Universite de Montpellier, priority 2015, published 2021)

Test: Fluorescein release from hydrogels in phosphate buffer, monitored by HPLC
Format: physicochemical
Conditions: covalently grafted in PEG hydrogel, plateau after 72 hours
From the text: FIG. 2: this figure concerns tests to quantify the release of fluorescein from various hydrogels according to the invention. The hydrogels grafted with fluorescein by covalent bond show much lower release rates than the hydrogel containing fluorescein simply enclosed with no covalent bond.
In order to show the covalent incorporation of a (bio)molecule into the gel and the absence of release over time of the grafted molecules, fluorescein derivatives were selected to be chemically linked to the hydrogels in accordance with the present invention (see FIG. 2 for the exact formulae). Thus, if there were to be a release of the grafted molecules, the use of fluorescein would make it possible to easily detect it.
Fluorescein isothiocyanate (FITC) was used to prepare two types of fluorescein derivatives giving covalent bonds (triethoxysilane and dimethylhydroxysilane), as well as a non-silylated molecule used as control. Each fluorescein derivative was dissolved at a concentration of 5.2 mM in a solution of bi-silylated hybrid PEG, itself at a concentration of 10% by mass relative to the mass of DPBS used as solvent. Sodium fluoride was added, and the solutions were homogenized. Fluorescent hybrid hydrogels were obtained at 37° C. in 30 minutes. The various hydrogels were placed in phosphate buffer (10 mL) and fluorescein release was monitored by HPLC. […]

For `C[Si](C)(O)CCCNC(=O)NCCCNC(=S)Nc1ccc(-c2c3ccc(=O)cc-3oc3cc(O)ccc23)c(C(=O)O)c1` [dimethythydroxyfluorescein, Hydroxydimethylsilyl Fluorescein], the “maximum release (relative to the total amount of fluorescein introduced)” value was 20%.
